Data published in US20230285405A1, “Pharmaceuticals for Treating or Preventing Nidoviruses and Picornaviruses” (priority 2020, published 2023).
Counter-ions that a name gives are not always drawn. Like-named read-outs stand apart in the source and are kept apart here.

What was measured:
OC43 = experiment: Drug screening: OC43 nucleoprotein staining in infected A549-mRuby cells; type: cell-based, human beta coronavirus OC43
Description: A549-mRuby cells were seeded (3,000 cells per well) in nine 384-well plates using Multidrop combi. Cells were seeded in a final volume of 30 μl with DMEM+10% BCS. The following day, 20 μl of OC43 were added (MOI 0.3) and incubated at 33° C., 5% CO2 for 1 hour. 50 nl from the Selleck FDA-approved drug library (cat #L1300, Selleck) were added (1:1,000 dilution). Two columns (32 wells) were left uninfected and two columns were treated with DMSO and virus (no drug control). Cells were imaged using the IncuCyte S3 to measure cell numbers at day 0. Cells were incubated for 4 days at 33° C., 5% CO2 and were stained for OC43 nucleoprotein. All the following steps were performed at room temperature. Cells were fixed in 50 μl 4% PFA/PBS for 15 min, blocked with 50 μl 10% BSA+0.5% Triton X-100 in PBS for 30 minutes, stained with 50 μl anti-OC43 (cat #MAB9013, Milipore) diluted 1:2,000 in 2% BSA+0.1% Triton X-100 in PBS for 1 hour, washed with 50 μl PBS three times, stained with anti-mouse-AlexaFluor488 diluted 1:1,000 in 2% BSA+0.1% Triton X-100 in PBS for 1 hour, washed with 50 μl PBS three times and imaged on the IncuCyte S3 (day 4). The screen was performed twice.
(§1) The following parameters were extracted from the images: number of cells at day 0, number of cells at day 4 and total OC43 staining intensity at day 4. For analysis, OC43 staining intensity was normalized to the number of cells in the well and further normalized to the mean of the no drug controls, which was set to 100. […] For each plate, a drug was considered as a putative hit if it reduced OC43 staining by over 3 standard deviations from the mean of the no drug controls. Drugs were considered hits if they were not toxic and reduced OC43 staining by over 3 standard deviations in both repeats.
(§2) A library of 1,900 clinically used drugs was screened, the drugs either approved for human use or having extensive safety data in humans (Phase 2 or 3 clinical trials), for their ability to inhibit OC43 infection of the human lung epithelial cell line A549 (expressing an H2B-mRuby nuclear reporter). One day after plating, cells were infected at an MOI of 0.3, incubated at 33° C. for 1 hour and drugs were added to a final concentration of 10 μM. Cells were then incubated at 33° C. for 4 days, fixed and stained for the presence of the viral nucleoprotein. The cells were imaged at day 0 (following drug addition) and day 4 (after staining) to determine the drugs effect on cell growth and OC43 infection.

A549-mRuby cells = experiment: Drug screening: effect on cell growth (cell number day 4 / day 0); details: 10 μM drug; for Growth_1: number of cells at day 4 divided by number of cells at day 0 / toxic_1: repeat #1; for Growth_2: number of cells at day 4 divided by number of cells at day 0 / toxic_2: repeat #2
Description: A549-mRuby cells were seeded (3,000 cells per well) in nine 384-well plates using Multidrop combi. Cells were seeded in a final volume of 30 μl with DMEM+10% BCS. The following day, 20 μl of OC43 were added (MOI 0.3) and incubated at 33° C., 5% CO2 for 1 hour. 50 nl from the Selleck FDA-approved drug library (cat #L1300, Selleck) were added (1:1,000 dilution). Two columns (32 wells) were left uninfected and two columns were treated with DMSO and virus (no drug control). Cells were imaged using the IncuCyte S3 to measure cell numbers at day 0. Cells were incubated for 4 days at 33° C., 5% CO2 and were stained for OC43 nucleoprotein. All the following steps were performed at room temperature. […] The screen was performed twice.
as §1, §2

[1] = Betacoronavirus 1, OC43, 96 h, 10 μM drug, MOI 0.3, 4 days, OC43 staining normalized to no-drug controls, mean of the two screen repeats, read-out: OC43_mean
[2] = Betacoronavirus 1, OC43, 96 h, 10 μM drug, MOI 0.3, 4 days, normalized to no-drug controls in the same plate, repeat #1, read-out: OC43_1: % staining of OC43 in screen repeat #1
[3] = Betacoronavirus 1, OC43, 96 h, 10 μM drug, MOI 0.3, 4 days, normalized to no-drug controls in the same plate, repeat #2, read-out: OC43_2: % staining of OC43 in screen repeat #2
[4] = Betacoronavirus 1, OC43, 96 h, read-out: OC43_mean
[5] = 10 μM drug, MOI 0.3, 4 days, OC43 staining normalized to no-drug controls, mean of the two screen repeats
[6] = 10 μM drug, MOI 0.3, 4 days, normalized to no-drug controls in the same plate, repeat #1
[7] = 10 μM drug, MOI 0.3, 4 days, normalized to no-drug controls in the same plate, repeat #2

| Structure (SMILES) | hit_1 (OC43; 10 μM drug, repeat #1) | hit_2 (OC43; 10 μM drug, repeat #2) | activity at 10 µM (OC43; [1]) [%] | activity at 10 µM (OC43; [2]) [%] | activity at 10 µM (OC43; [3]) [%] | Growth_1: number of cells at day 4 divided by number of cells at day 0 (A549-mRuby cells) | toxic_1 (A549-mRuby cells) | Growth_2: number of cells at day 4 divided by number of cells at day 0 (A549-mRuby cells) | toxic_2 (A549-mRuby cells) | activity at 10 µM (OC43; [4]) [%] | activity at 10 µM (OC43; Betacoronavirus 1, 96 h, 10 μM drug, MOI 0.3, 4 days, OC43 staining normalized to no-drug controls, mean of the two screen repeats, read-out: OC43_mean) [%] | OC43_mean (OC43; [5]) [%] | OC43_1: % staining of OC43 in screen repeat #1 (OC43; [6]) [%] | OC43_2: % staining of OC43 in screen repeat #2 (OC43; [7]) [%] |
| --- | --- | --- | --- | --- | --- | --- | --- | --- | --- | --- | --- | --- | --- | --- |
| CNCCCN1c2ccccc2CCc2ccccc21 [Desipramine Hydrochloride] | 1 | 1 | 21.8 | 20 | 23.7 | 4.4 | 0 | 3.9 | 0 | – | – | – | – | – |
| O=C(Nc1ccccc1)OCC(CN1CCCCC1)OC(=O)Nc1ccccc1 (centres unmarked) [Diperodon HCl] | 1 | 1 | 42.9 | 24.2 | 61.6 | 4.6 | 0 | 4.4 | 0 | – | – | – | – | – |
| CN1CCC(OC(c2ccccc2)c2ccccc2)CC1 [Diphenylpyraline HCl] | 1 | 1 | – | 33.2 | 51.6 | 6.0 | 0 | 4.2 | 0 | 42.4 | – | – | – | – |
| COc1cc2nc(N3CCN(C(=O)C4COc5ccccc5O4)CC3)nc(N)c2cc1OC (centres unmarked) [Doxazosin Mesylate] | 1 | 1 | 29.7 | 50.1 | 9.2 | 5.2 | 0 | 4.9 | 0 | – | – | – | – | – |
| CN(C)CCC=C1c2ccccc2COc2ccccc21 [Doxepin HCl] | 1 | 1 | 32.6 | 29.2 | 36.1 | 4.9 | 0 | 5.7 | 0 | – | – | – | – | – |
| COc1cc2c(cc1OC)CN(CCc1ccc(NC(=O)c3cccc4c(=O)c5cccc(OC)c5[nH]c34)cc1)CC2 [Elacridar (GF120918), Elacridar] | 1 | 1 | 31.4 | 24.4 | 38.3 | 4.6 | 0 | 5.8 | 0 | – | – | – | – | – |
| CCCCCCCC(=O)N[C@H](CN1CCCC1)[C@H](O)c1ccc2c(c1)OCCO2 [Eliglustat] | 1 | 1 | – | 22.7 | 20.4 | 5.5 | 0 | 4.8 | 0 | – | 21.5 | – | – | – |
| CC(C)(O)CNc1nc(Nc2ccnc(C(F)(F)F)c2)nc(-c2cccc(C(F)(F)F)n2)n1 [Enasidenib (AG-221), Enasidenib] | 1 | 1 | 26.1 | 23.3 | 29 | 5.2 | 0 | 4.8 | 0 | – | – | – | – | – |
| CCC(=O)O[C@H]1[C@H](O[C@@H]2[C@@H](C)[C@H](O[C@H]3C[C@@](C)(OC)[C@@H](O)[C@H](C)O3)[C@@H](C)C(=O)O[C@H](CC)[C@@](C)(O)[C@H](O)[C@@H](C)C(=O)[C@H](C)C[C@@]2(C)O)O[C@H](C)C[C@@H]1N(C)C [Erythromycin estolate] | 1 | 1 | 20.1 | 24.2 | 15.9 | 4.5 | 0 | 4.8 | 0 | – | – | – | – | – |
| CC[C@H]1OC(=O)[C@H](C)[C@@H](O[C@H]2C[C@@](C)(OC)[C@@H](O)[C@H](C)O2)[C@H](C)[C@@H](O[C@@H]2O[C@H](C)C[C@H](N(C)C)[C@H]2O)[C@](C)(O)C[C@@H](C)C(=O)[C@H](C)[C@@H](O)[C@]1(C)O.N#CS [Erythromycin thiocyanate] | 1 | 1 | – | – | – | 4.1 | 0 | 4.6 | 0 | – | – | 58.7 | 50.6 | 66.8 |
| C#C[C@]1(O)CC[C@H]2[C@@H]3CCC4=CC(=O)CC[C@@H]4[C@H]3C(=C)C[C@@]21CC [Etonogestrel] | 1 | 1 | 44.3 | 47.8 | 40.7 | 4.3 | 0 | 4.3 | 0 | – | – | – | – | – |
| CC1(C)O[C@@H]2C[C@H]3[C@@H]4C[C@H](F)C5=CC(=O)C=C[C@]5(C)[C@@]4(F)[C@@H](O)C[C@]3(C)[C@]2(C(=O)CO)O1 [Fluocinolone Acetonide] | 1 | 1 | 45.5 | 38.9 | 52.2 | 3.5 | 0 | 4.0 | 0 | – | – | – | – | – |
| CCC(=O)O[C@]1(C(=O)SCF)[C@H](C)C[C@H]2[C@@H]3C[C@H](F)C4=CC(=O)C=C[C@]4(C)[C@@]3(F)[C@@H](O)C[C@@]21C [Fluticasone propionate] | 1 | 1 | – | – | – | 3.8 | 0 | 4.2 | 0 | – | – | 48.8 | 48.4 | 49.2 |
| COCCCC/C(=N\OCCN)c1ccc(C(F)(F)F)cc1 [Fluvoxamine maleate] | 1 | 1 | – | 22.7 | 38.9 | 5.4 | 0 | 4.5 | 0 | 30.8 | – | – | – | – |
| COc1cc2ncnc(Nc3ccc(F)c(Cl)c3)c2cc1OCCCN1CCOCC1 [Gefitinib (ZD1839), Gefitinib] | – | – | – | – | – | 3.4 | – | 3.7 | – | – | – | 35.5 | 39.7 | 31.3 |
